One may read the Kd as the free concentration of one partner at which half of the binding sites on the other are occupied at equilibrium, for simple one-to-one binding.

This is an account of results in patent US20210285940A1, “Improved Fluorescent Resonance Energy Transfer-Based Biosensor Proteins And Their Methods of Use Thereof” (Pebble Labs Inc., priority 2018, published 2021).

Where “and” joins values, the source holds several entries; their conditions need not be identical. Identical values can stand only once.

Data set [1] is described as follows: Titration of TqLPNGh biosensor with BAI-2 monitored through acceptor-to-donor emission ratio. Format: binding. Here is the method: FIG. 13: Titration of TqLPNGh biosensor with autoinducer BAI-2 monitored through acceptor-to-donor emission ratio (A-to-D ratio). Measurements of TqLPNGh fluorescence emission spectra were performed in 50 mM HEPES (pH 7.5)/0.1 mM EDTA/0.4 mM boric acid//0.15 M NaCl buffer using 50 nM TqLPNGh. Emission spectra of TqLPNG were recorded by using 440 nm excitation. The values for the A-to-D ratio for the BIA-2 titration (the filled circles) were fitted to the phenomenological Hill equation to get BAI-2 concentration corresponding to the half decrease in A-to-D ratio (C50%). The values for A-to-D ratio corresponding to the control titration, i.e., titration of TqLPNGh with the ligand-free plain buffer, are shown as unfilled circles.
The values for D-to-A fluorescence ratio values BAI-2 concentration were plotted and then fitted with the phenomenological Hill equation or with the simple single site binding model. […] The presence of boric acid in the assay buffer (i.e., 50 mM HEPES (pH 7.5)/0.1 mM EDTA/0.15 M NaCl/0.4 mM boric acid) may be beneficial. Deficiency in boric acid may cause strong reduction in the apparent ligand affinity, yielding enhanced Kd-value and, therefore, a strong decrease in biosensor sensitivity.]
A Cary 300 spectrophotometer (Agilent/Varian Technologies) and FluoroMax fluorescence spectrophotometer (Horiba Scientific) equipped with Peltier-based temperature controlled cell holders were used for absorbance and fluorescence measurements, respectively. To characterize fluorescent proteins, all measurements (including TqLPNGh titration with BAI-2) were performed at 20° C. with proteins prepared in 50 mM HEPES buffer (pH 7.5)/0.1 mM EDTA, containing different NaCl concentrations. Fluorescence emission spectra were recorded in a 4 mm fluorescence cell by using 2 nm slit width at both excitation and emission monochromators. Typically, 50 nM protein concentrations were employed for fluorescence measurements. The protein stock solutions were prepared in 50 mM HEPES buffer (pH 7.5)/0.1 mM EDTA/0.3 M NaCl at 2 μM (for the TqLPNG) or 10 μM (for Tqh or NGh) concentration.

Data set [2] can be described thus: Control experiments for photo-bleaching. Format: physicochemical. The following applies: three consecutive spectrum records, 20° C.
Experimental: For measurements associated with examination of ligand-induced response of TqLPNG biosensor fluorescence emission 0.1 mM BAI-2 stock solution was freshly prepared and contained 1 mM DPD and 4 mM boric acid in 50 mM HEPES buffer (pH 7.5) (Semmelhack et al., 2005). To test the biosensor fluorescence response for BAI-2 binding 400 μL samples having the same biosensor concentration (50 nM) and variable BAI-2 concentrations in 50 mM HEPES (pH 7.5)/0.4 mM boric acid/0.1 mM EDTA/0.15 M NaCl were prepared from the protein and the ligand stock solutions using analytical balances. Fluorescence emission spectra were taken following 3 min temperature equilibration of the sample within the temperature controlled cell holder (set for 20° C.).
The nature of data set [3]: TqLPNG fluorescence emission response towards BAI-2 binding at different NaCl concentrations. Type of data set: biochemical. How it is done:
FIG. 8 (A-B): Response of the fluorescence emission spuctrum of TqLPNGh towards BAI-2 binding at different concentrations.of sodium chloride. Emission spectra (solid lines) were deconvoluted into the donor (dotted lines) and the acceptor (dashed lines) emission components, and the evaluation for the FRET efficiency (E values) was performed through enhancement in the acceptor emission referenced to the directly excited acceptor emission (the grey lines) as described under Materials and Methods. The spectra were recorded by using an excitation wavelength of 440 nm. Measurements were performed in a 50 mM HEPES (pH 7.5)/0.1 mM EDTA buffer (containing the specified amount of NaCl) with 50 nM TLPNGh.
FIG. 9: An example of fluorescence emission spectrum of TqLPNGh and its response to BAI-2 binding. (9A) Emisson spectra of 50 nM TqLPNGh in 50 mM HEPES (pH 7.5)/0.1 mM EDTA buffer in the absence (the grey line) and in the presence of 10 μM BAI-2 (the black line). The spectra were recorded by using a 440 nm excitation wavelength. (9B) Dependence of the BAI-2 binding TqLPNGh emission response (expressed as decrease in acceptor-to-donor emission ratio induced by BAI-2 binding) on concentration of NaCl.
TqLPNG fluorescence response towards BAI-2 binding was examined at different concentrations of NaCl (see FIG. 8). At any salt concentration, BAI-2 binding yielded an increase in the biosensor donor emission and the corresponding decrease in the acceptor emission, originated from the ligand-induced decrease in FRET between the donor and the acceptor chromophores. Indeed, for any salt concentration BAI-2 binding caused a decrease in FRET efficiency (follow the E-values in FIG. 8) and associated decrease in the acceptor-to-donor emission ratio. […] The observable BAI-2 binding amplitude was maximal at low salt buffer (−49%), strongly dropped at 0.15 M and became too small (for BAI-2 quantification applications) at 0.3 M and higher NaCl concentrations. […]
A Cary 300 spectrophotometer (Agilent/Varian Technologies) and FluoroMax fluorescence spectrophotometer (Horiba Scientific) equipped with Peltier-based temperature controlled cell holders were used for absorbance and fluorescence measurements, respectively. […] Fluorescence emission spectra were recorded in a 4 mm fluorescence cell by using 2 nm slit width at both excitation and emission monochromators. Typically, 50 nM protein concentrations were employed for fluorescence measurements. […]
FRET efficiency in TqLPNG was determined under variety of solution conditions by measurements of the emission spectra of TqLPNG (DA-species) alternatively excited at 440 nm and 505 nm. […]

A short description of data set [4]: Prolonged storage of TqLPNG examined through size-exclusion chromatography. Format: physicochemical. Here is the method: FIG. 12: Accumulation of high order associates of TqLPNGh during its prolonged storage in the salt-free 50 mM HEPES (pH 7.5)/0.1 mM EDTA buffer at 4° C., examined through size-exclusion chromatography. The purified TqLPNG preparation (at ˜ 9 μM protein concentration) was stored at 4° C. in plain He buffer (containing 0.25 mM DTT and 0.25 mM TCEP) at 4° C. for about 3 weeks. 0.25 mL of the TqLPNGh solution was then mixed the equal volume of the appropriate buffer to get 0, 0.15 or 0.3 M NaCl final concentration. Following 1-2 hrs incubation (at 4° C.), the diluted protein was injected into Superdex 20010/300 column equlibrated with He, He+0.15 M NaCl or He+0.3 M NaCl buffer, respectively. The protein elution was detected through absorbance at 280 nm. The flow rate was 0.5 mL/min. The large overlapping peaks at 9-12 elution volume correspond to high order TqLPNG associates. Positions of peakes corresponding to TqLPNG dimer or monomer are marked with the arrows.
The reasonable question that follows deciphering the origin of the TqLPNG fluorescence emission response towards BAI-2 binding is to understand the optimal conditions for the biosensor-based determination of BAI-2 concentrations. Low NaCl conditions provide an increased change in acceptor-to-donor emission ratio for the BAI-2 binding favorable for accurate BAI-2 quantification. […] Thus, there should by a compromise between the binding amplitude of the observable signal (i.e., the decrease in the acceptor-to-donor emission ratio corresponding to fully saturated biosensor) and stability of the TqLPNG preparation (against the formation of high order associates).
In general terms: In gel filtration, larger molecules generally elute earlier.

Consider “TqLPNG: tripartite FRET biosensor fusion mTurquoise2-(24-365)LuxP-mNeonGreen; TqLPNGh carries C-terminal His6 tag (SEQ ID NO. 2), SEQ ID NO. 3 lacks it”, for which, in data set [1] (50 nM TqLPNG, 50 mM HEPES (pH 7.5)/0.1 mM EDTA/0.15 M NaCl/0.4 mM boric acid, Hill equation fit, read-out: BAI-2 concentration corresponding to the half-transition (C50%) in emission response), the EC50 was determined as 24 ± 1 nM. Further, the Kd in data set [1] (50 nM TqLPNG, 50 mM HEPES (pH 7.5)/0.1 mM EDTA/0.15 M NaCl/0.4 mM boric acid, single site binding model, read-out: BAI-2•TqLPNG dissociation constant (Kd)) was 9 nM and 10 nM and ~10 nM. Besides, the “higher sensitivity towards BAI-2 concentration as compared to mCLPY biosensor” value in data set [1] (from dissociation constants 10 nM versus 270 nM) is on record as “more than 10 fold”. For the same substance, the “changes in the fluorescence spectrum (photo-bleaching control)” value in data set [2] is recorded as “no changes”. Also, in data set [3] (50 mM HEPES (pH 7.5)/0.4 mM boric acid/0.1 mM EDTA, 0.15 M NaCl), the “magnitude of decrease of the acceptor-to-donor emission ratio on BAI-2 titration” value is recorded as about 17%. Also, in data set [3] (0.3 M and higher NaCl), the “observable BAI-2 binding amplitude” value is given as “too small”. Also, in data set [3] (adjustable fluorescence response, maximum), the “decrease in the acceptor to donor emission ratio upon autoinducer-2 binding” value was “up to 48%”. In addition, the “observable BAI-2 binding amplitude (decrease in acceptor-to-donor emission ratio, fully saturated)” value in data set [3] (low salt buffer) is recorded as −49%. Besides, the “stability against formation of high order associates” value is “no formation of ‘inactive’ high-order associates” in data set [4] (0.3 M NaCl, prolonged storage at 4° C.); “good stability” in data set [4] (HEPES (pH 7.5) buffer containing 0.15 M NaCl); “accumulation of high-order TqLPNG associates” in data set [4] (prolonged storage in low salt buffer, 4° C.).
